Measurements taken from patent US20130157261A1, “Compositions and Methods for Quantitative Histology, Calibration of Images in Fluorescence Microscopy, and ddTUNEL Analyses” (The Methodist Hospital Research Institute, priority 2011, published 2013).

Columns and labels:
[1] = system: normal human astrocytes (NHA)
Protocol: (§1) Normal human astrocytes (NHA) were obtained from Lonza (Walkersville, Md., USA) and grown subject to their recommendations. NHA were grown to confluency in Astrocyte Cell Basal Medium supplemented with 3% FBS, Glutamine, Insulin, fhEGF, GA-1000 and ascorbic acid in 16-well Lab-Tek slide chambers (Nalge Nunc, Rochester, N.Y., USA), in a total volume of 240 μL.
NHA were incubated for 1 hour with probes before fixation. Fixation in buffered paraformaldehyde (PFA) was performed in two stages. Firstly, a […] of ice-cold 8% PFA was added to each well, then gently aspirated and the wells were twice washed with ice-cold 2% PFA and then allowed to completely fix at 4° C. After fixation, cells were washed twice in 1×PBS (Thermo Fisher Scientific, Rockford, Ill., USA). The tanks were then removed from the slides, the well area covered with Fluoromount-G (SouthernBiotech, Ill., USA), cover-slipped and sealed with nail varnish.
DNA was visualized using 1 μM Hoechst 33258 (Cat. No. H1398), mitochondrial membrane potential with 500 nM Mitotracker® Red (Dagda et al., 2009) (Cat. No. M22425), hydrogen peroxide using 5 μM H2DCFAM (Whiteman et al., 2009; Setsukinai et al., 2003) (Cat. No. D399), mitochondrial superoxide generation with 5 μM MitoSOX™ Red (Abramov et al., 2010) (Cat. No. M36008), HO. was assayed using 5 μM hydroxyphenyl fluorescein (Setsukinai et al., 2003) (HPF) (Cat. No. H36004), with reagents obtained from Molecular Probes (Eugene, Oreg., USA).
(§2) 3% FCS was present in the NHA medium throughout the time-course. To generate the time-course shown in FIG. 17A and FIG. 17B, NHA were exposed to Mitotracker, H2DCFAM and Hoechst at t=0.

[2] = system: normal human astrocytes (NHA); details: 14.4 μM thimerosal, 1 hr, vs control (FIG. 21)
Protocol: as §1
(§3) Fixed cells were permeabilized using 1×PBS with 0.1% Triton X-100®. Hydrazine reactive aldehyde/ketones were labeled using 225 μM Biotin-XX hydrazide (Hensley, 2009) (Cat. No. B2600) and visualized using Texas Red-Avidin (Cat. No. A820). The activity of Caspase-3 in fixed, 0.1% Triton-permeabilized cells was measured using the R110-EnzChek® Assay Kit (Molecular Probes, Cat. No. E13184), and incubating cells for 1 h at 37° C. (Scott et al., 2003).
as §2

[3] = system: normal human astrocytes (NHA); remark: listed apart in the source
Description: as §2

[4] = system: Caspase-3; details: NHA, 14.4 μM thimerosal, 1 hr, vs control
Protocol: as §3, §2

[5] = system: normal human astrocytes (NHA); details: 14.4 μM thimerosal
Protocol: NHA were incubated for 1 hour with probes before fixation. Fixation in buffered paraformaldehyde (PFA) was performed in two stages. Firstly, a 50-4 aliquot of ice-cold 8% PFA was added to each well, then gently aspirated and the wells were twice washed with ice-cold 2% PFA and then allowed to completely fix at 4° C. After fixation, cells were washed twice in 1×PBS (Thermo Fisher Scientific, Rockford, Ill., USA). The tanks were then removed from the slides, the well area covered with Fluoromount-G (SouthernBiotech, Ill., USA), cover-slipped and sealed with nail varnish.

[6] = 14.4 μM thimerosal, 1 hr, vs control (FIG. 21)

C[CH2][Hg][S]c1ccccc1C(=O)[O-].[Na+] [Thimerosal]
increase in HO. greater than the increase in superoxide generation ([1]; 14.4 μM thimerosal, 1 hr): ≈ 80%
increase in superoxide generation per cell ([1]; 14.4 μM thimerosal, 1 hr): 90%
more HO. generation per superoxide ([1]; 14.4 μM thimerosal, 1 hr, deconvolution of signals): 60%
increase in HO. [1, 6]: 300%
increase in internal mitochondrial steady state level of superoxide [1, 6]: ≈ 70%
thimerosal concentration at which a loss of mitochondrial signal and of DCF was observed ([1]; 60 min, 0-14.4 μM): > 7.2 µM
increase in cellular hydrazine reactive carbonyls (matches superoxide increase) [2]: ≈ 70%
increase in 3′OH DNA nicks [3, 6]: 300%
increase in levels of mitochondrial DNA breaks [3, 6]: 240%
increase in levels of oxidized bases/apurinic or apyrimidinic sites [3, 6]: 460%
increase in levels of oxidant damaged mitochondrial DNA bases ([3]; Thimerosal treatment): five-fold
increase in Caspase-3 activity [4]: five-fold
time at which levels of cellular DCF began to fall [5]: > 40 min
amount of ROS (DCF) generated by mitochondria vs control mitochondria ([5]; 60 min, fit of intensity profiles): four times
increase in ROS (DCF) ([5]; 60 min, vs control): two-fold
increase in steady-state production of reactive oxidants (H2DCF-AM) ([5]; 1 hr, vs control): 200%
